In patent publication US7176219B2, “Salts of quinuclidine derivative” (priority 2005, dated 2007):
Where two headings read alike, the source gives them in different places.

Columns and labels:
muscarinic M3 receptors = biological target: T1, muscarinic M3 receptors (Cavia porcellus, UniProt H0W1Z3); test: Functional affinity estimate for muscarinic M3 receptors in bladders (carbachol-induced intracellular Ca2+ change in bladder smooth muscle cells); type: cell-based, guinea pig; conditions: for Ki: IC50 converted by Cheng-Prusoff equation based on EC50 of carbachol; for IC50: inhibition of carbachol-induced Ca2+ increase, guinea pig bladder smooth muscle cells, Fura2
T1 construct: Smooth muscle cells were isolated from guinea pig bladders; from tissue; host or cells: smooth muscle cells freshly isolated from guinea pig bladder
Experimental: Below, the method is described in brief.
Smooth muscle cells were isolated from guinea pig bladders from which the […] had been removed, loaded with a calcium-sensitive fluorescent dye Fura2 and suspended in phenol red-free Hanks' buffer solution supplemented with 20 mM HEPES (pH 7.4) and 0.1% bovine serum albumin. An aliquot of cell suspension (490 μL) was continuously stirred, kept at 28° C. and monitored for the ratio of fluorescence (500 nm) at 340 nm excitation to that at 380 nm excitation. To each aliquot, 5 μL of test compound and carbachol solutions were serially added with a 2 minute interval, and the peak increase in the ratio over the level just before stimulation was used in data analysis.

[1] = Evaluation of stability (1): forced degradation test, impurities by LC; conditions: for Change from Impurity Amt. before Storage (%), Condition 3 / Change from Impurity Amt. before Storage (%), Condition 2: 25° C., 5 days; for Change from Impurity Amt. before Storage (%), Condition 3: NUV (near ultraviolet ray) irradiated; for Change from Impurity Amt. before Storage (%), Condition 3 / Change from Impurity Amt. before Storage (%), Condition 1: tightly closed; for Change from Impurity Amt. before Storage (%), Condition 2: relative humidity 93%, open; for Change from Impurity Amt. before Storage (%), Condition 1: 120° C., 24 hours
Experimental: A sample after storage was dissolved in 1 mL of MeOH and used as a sample solution. The sample solution was diluted 100 times with MeOH and used as a standard solution. Impurities contained in the sample solution was quantitatively analyzed using the standard solution. In this determination, the apparatus including data processing was operated according to the method and procedure directed in each device. (Apparatus: LC-MSD 1100 series, made by Agilent)

[2] = Evaluation of hygroscopicity (dynamic steam adsorption, weight change); type: physicochemical; conditions: 25° C., within the range 5–95% relative humidity
Experimental: A sample (about 5 mg) was placed in a purpose-made quartz holder, and the sample weight at the respective humidity was continuously measured and recorded in the following conditions. The apparatus including data processing was operated according to the method and procedure directed in each device. (Apparatus: dynamic steam adsorption measuring apparatus DVS Advantage, made by SMS)

[3] = system: carbachol-evoked bladder contraction; test: Inhibitory effects on carbachol-evoked bladder contraction in anesthetized mice; type: in vivo; conditions: anesthetized female mice, i.v., carbachol 10 μg/kg, intravesical pressure
Experimental: The method for determination of inhibitory effects of test compounds on bladder contraction is described as follows.
Female mice, weighing 30 to 35 g, were anesthetized with a sub-lethal dose (75 mg/kg, i.v.) of sodium pentobarbital and placed supine on a heating pad to maintain the body temperature. A polyethylene catheter (PE10) was cannulated to the bladder via the urethra and secured by purse-string suture at the external urethral opening. Another catheter was inserted into the femoral vein for injections of drug solutions at a […]. The bladder catheter was connected to a pressure transducer through a three-way stopcock valve. The bladder was emptied by drainage of urine through the catheter, and then distended with about 100 μL of physiological saline, and the intravesical pressure was measured.
After intravesical pressure stabilization, the muscarinic agonist carbachol (10 μg/kg) was administered repeatedly with an interval of 15 minutes or longer. By this means, bladder contractions occurred in a reproducible manner over 2 hours without deterioration of physical conditions. After three responses to carbachol were obtained, a test compound injection was followed by carbachol administration 10 minutes later and this procedure was repeated with increasing doses of the test compound. In four or five mice per test compound, the percent inhibition of means of prior drug responses was obtained and the dose of test compound required for 50% inhibition (ID50) was estimated by the linear regression analysis. Mice showing rhythmic bladder constriction were not used for the data analysis.

T1 sequence (H0W1Z3 1-590): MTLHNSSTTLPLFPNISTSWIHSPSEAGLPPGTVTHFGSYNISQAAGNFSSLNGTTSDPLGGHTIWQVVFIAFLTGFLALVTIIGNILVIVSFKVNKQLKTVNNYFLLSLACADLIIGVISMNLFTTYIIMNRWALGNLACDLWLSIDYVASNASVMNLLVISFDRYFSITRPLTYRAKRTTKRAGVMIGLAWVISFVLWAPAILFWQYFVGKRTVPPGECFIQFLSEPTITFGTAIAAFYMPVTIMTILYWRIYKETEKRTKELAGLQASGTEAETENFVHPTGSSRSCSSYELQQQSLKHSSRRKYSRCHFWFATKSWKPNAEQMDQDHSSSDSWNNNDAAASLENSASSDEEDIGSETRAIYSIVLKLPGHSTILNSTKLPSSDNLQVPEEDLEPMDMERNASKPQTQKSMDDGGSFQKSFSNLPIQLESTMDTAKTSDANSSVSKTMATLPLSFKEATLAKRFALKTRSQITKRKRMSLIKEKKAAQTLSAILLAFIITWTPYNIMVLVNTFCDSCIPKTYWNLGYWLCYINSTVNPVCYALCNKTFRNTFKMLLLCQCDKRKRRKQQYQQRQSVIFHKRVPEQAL

| Compound | Ki (muscarinic M3 receptors; read-out: Ki) | IC50 (muscarinic M3 receptors) | Change from Impurity Amt. before Storage (%), Condition 3 [1] | Change from Impurity Amt. before Storage (%), Condition 2 [1] | Change from Impurity Amt. before Storage (%), Condition 1 [1] | Increase of impurities under heat ([1]; Condition 1 of Test Example 2 (stability test to heat)) | Impurities before Storage (%) [1] | Weight Change (%) [2] | ID50 (dose required for 50% inhibition of bladder contraction) [3] | IC50 (muscarinic M3 receptors; IC50 (ng/mL)) | Ki (muscarinic M3 receptors; Ki (nM)) | Change from Impurity Amt. before Storage (%), Condition 3 ([1]; benzenesulfonate) | Change from Impurity Amt. before Storage (%), Condition 2 ([1]; benzenesulfonate) | Change from Impurity Amt. before Storage (%), Condition 1 ([1]; benzenesulfonate) | Impurities before Storage (%) ([1]; benzenesulfonate) |
| --- | --- | --- | --- | --- | --- | --- | --- | --- | --- | --- | --- | --- | --- | --- | --- |
| (−)-(3R)-quinuclidin-3-yl(1R)-1-phenyl-1,2,3,4-tetrahydroisoquinoline-2-carboxylate (−)-L-phenylalaninate [Example 4] | 0.66 ± 0.046 nM | 2.5 ± 0.044 ng/mL | −0.3% | −0.3% | 50.8% | increase of impurities | 1.9% | <2% | 0.090 mg/kg | – | – | – | – | – | – |
| O=C(O[C@H]1CN2CCC1CC2)N1CCc2ccccc2[C@H]1c1ccccc1 [Example 3, (−)-(3R)-quinuclidin-3-yl(1R)-1-phenyl-1,2,3,4-tetrahydroisoquinoline-2-carboxylate (+)-(2S,3S)-di-O-(4-methylbenzoyl)tartrate] | – | – | 0.0% | 0.1% | 2.3% | – | 0.0% | <1% | – | 10.5 nM | 0.69 ± 0.19 nM | – | – | – | – |
| (−)-(3R)-quinuclidin-3-yl(1R)-1-phenyl-1,2,3,4-tetrahydroisoquinoline-2-carboxylate naphthalene-2-sulfonate [Example 8] | 0.55 ± 0.12 nM | 2.3 ± 0.87 ng/mL | 2.6% | 0.2% | 1.3% | – | 2.0% | <4% | 0.057 mg/kg | – | – | – | – | – | – |
| O=C(O[C@H]1CN2CCC1CC2)N1CCc2ccccc2[C@H]1c1ccccc1 [Example 2, (−)-(3R)-quinuclidin-3-yl(1R)-1-phenyl-1,2,3,4-tetrahydroisoquinoline-2-carboxylate (+)-(2S,3S)-di-O-benzoyltartrate] | – | – | 0.0% | 0.1% | 0.2% | – | 0.0% | <1% | – | 8.83 nM | 0.62 ± 0.16 nM | – | – | – | – |
| O=C(O[C@H]1CN2CCC1CC2)N1CCc2ccccc2[C@H]1c1ccccc1.O=S(=O)(O)c1ccccc1 [Example 5-1, (−)-(3R)-quinuclidin-3-yl(1R)-1-phenyl-1,2,3,4-tetrahydroisoquinoline-2-carboxylate benzenesulfonate] | – | – | – | – | – | – | – | <1% | – | – | – | −0.2% | 0.0% | −0.1% | 1.8% |
| Br.O=C(O[C@H]1CN2CCC1CC2)N1CCc2ccccc2[C@H]1c1ccccc1 [Example 7, (−)-(3R)-quinuclidin-3-yl(1R)-1-phenyl-1,2,3,4-tetrahydroisoquinoline-2-carboxylate hydrobromide] | – | – | 0.3% | 0.2% | −0.2% | – | 0.5% | <4% | 0.050 mg/kg | 4.06 nM | 0.66 ± 0.28 nM | – | – | – | – |
| Cc1ccc(S(=O)(=O)O)cc1.O=C(O[C@H]1CN2CCC1CC2)N1CCc2ccccc2[C@H]1c1ccccc1 [Example 11, (−)-(3R)-quinuclidin-3-yl(1R)-1-phenyl-1,2,3,4-tetrahydroisoquinoline-2-carboxylate p-toluenesulfonate] | – | – | 0.0% | 0.1% | −0.1% | – | 0.5% | <6% | – | 4.11 nM | 0.52 ± 0.13 nM | – | – | – | – |
| (−)-(3R)-quinuclidin-3-yl(1R)-1-phenyl-1,2,3,4-tetrahydroisoquinoline-2-carboxylate methyl phosphate [Example 14] | – | – | – | – | – | – | – | <11% | – | – | – | – | – | – | – |
| CCS(=O)(=O)O.O=C(O[C@H]1CN2CCC1CC2)N1CCc2ccccc2[C@H]1c1ccccc1 [Example 12, (−)-(3R)-quinuclidin-3-yl(1R)-1-phenyl-1,2,3,4-tetrahydroisoquinoline-2-carboxylate ethanesulfonate] | – | – | −0.1% | −0.1% | −0.2% | – | 1.4% | <5% | – | 4.02 nM | 0.54 ± 0.055 nM | – | – | – | – |
| (−)-(3R)-quinuclidin-3-yl(1R)-1-phenyl-1,2,3,4-tetrahydroisoquinoline-2-carboxylate (+)-camphor-10-sulfonate [Example 10] | 0.65 ± 0.12 nM | 2.6 ± 0.42 ng/mL | 0.0% | 0.0% | 0.0% | – | 0.9% | <2% | – | – | – | – | – | – | – |
| O=C(O[C@H]1CN2CCC1CC2)N1CCc2ccccc2[C@H]1c1ccccc1.O=S(=O)(O)c1ccccc1 [Example 5, (−)-(3R)-quinuclidin-3-yl(1R)-1-phenyl-1,2,3,4-tetrahydroisoquinoline-2-carboxylate benzenesulfonate] | – | – | – | – | – | – | – | <1% | 0.059 mg/kg | 3.46 nM | 0.47 ± 0.12 nM | −0.1% | 0.1% | 0.3% | 1.6% |
| CS(=O)(=O)O.O=C(O[C@H]1CN2CCC1CC2)N1CCc2ccccc2[C@H]1c1ccccc1 [Example 13, (−)-(3R)-quinuclidin-3-yl(1R)-1-phenyl-1,2,3,4-tetrahydroisoquinoline-2-carboxylate methanesulfonate] | – | – | – | – | – | – | – | <25% | – | – | – | – | – | – | – |
| (−)-(3R)-quinuclidin-3-yl(1R)-1-phenyl-1,2,3,4-tetrahydroisoquinoline-2-carboxylate sebacate [Example 9] | 0.56 ± 0.048 nM | 2.2 ± 0.33 ng/mL | −0.8% | 0.2% | −0.3% | – | 3.7% | <1% | – | – | – | – | – | – | – |
